ChEMBL document CHEMBL1201862, “PubChem BioAssay data set” (2004)
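48-hour exposure; five concentrations; linearly interpolated endpoints. GI50 = concentration required for 50% inhibition of growth.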 Calls of active or inactive are those of the source. Cut-off read from the data, not from the text of the source: active = GI50 up to about 1.1 µM and inactive = higher.

Columns and labels:
Experiment in all cases: NCI-60 cell line screen, 48 h
UO-31 = system: UO-31
EKVX = system: EKVX
RPMI-8226 = system: RPMI-8226
SK-MEL-28 = system: SK-MEL-28
CCRF-CEM = system: CCRF-CEM
HOP-18 = system: HOP-18
COLO 205 = system: COLO 205
SK-MEL-5 = system: SK-MEL-5
SF-539 = system: SF-539
SNB-75 = system: SNB-75
DMS-273 = system: DMS-273
SK-OV-3 = system: SK-OV-3
LXFL 529 = system: LXFL 529
A549 = system: A549
IGROV-1 = system: IGROV-1
A498 = system: A498
RXF 631 = system: RXF 631
SR = system: SR
MOLT-4 = system: MOLT-4
HCT-15 = system: HCT-15
HOP-62 = system: HOP-62
HCC 2998 = system: HCC 2998
SK-MEL-2 = system: SK-MEL-2
RXF 393 = system: RXF 393
CAKI-1 = system: CAKI-1
SN12C = system: SN12C
DMS-114 = system: DMS-114
HCT-116 = system: HCT-116
U-251 = system: U-251
SW-620 = system: SW-620
SNB-78 = system: SNB-78
UACC-257 = system: UACC-257
M14 = system: M14
DLD-1 = system: DLD-1
OVCAR-3 = system: OVCAR-3
K562 = system: K562
SF-268 = system: SF-268
SNB-19 = system: SNB-19
Malme-3M = system: Malme-3M
OVCAR-4 = system: OVCAR-4
NCI-H522 = system: NCI-H522
OVCAR-8 = system: OVCAR-8
ACHN = system: ACHN
KM-20L2 = system: KM-20L2
TK-10 = system: TK-10
786-0 = system: 786-0
NCI-H226 = system: NCI-H226
NCI-H460 = system: NCI-H460
KM12 = system: KM12
HL-60 = system: HL-60
UACC-62 = system: UACC-62

Cc1ccc(Nc2ccc(Nc3ccc(C)cc3S(=O)(=O)O)c3c2C(=O)c2ccccc2C3=O)c(S(=O)(=O)O)c1
GI50 (UO-31): > 100 µM (inactive)
GI50 (EKVX): > 100 µM (inactive)
GI50 (RPMI-8226): > 100 µM (inactive)
GI50 (SK-MEL-28): > 100 µM (inactive)
GI50 (CCRF-CEM): > 100 µM (inactive)
GI50 (HOP-18): > 100 µM (inactive)
GI50 (COLO 205): > 100 µM (inactive)
GI50 (SK-MEL-5): > 100 µM (inactive)
GI50 (SF-539): > 100 µM (inactive)
GI50 (SNB-75): 94.6 µM (inactive)
GI50 (DMS-273): > 100 µM (inactive)
GI50 (SK-OV-3): > 100 µM (inactive)
GI50 (LXFL 529): > 100 µM (inactive)
GI50 (A549): > 100 µM (inactive)
GI50 (IGROV-1): > 100 µM (inactive)
GI50 (A498): > 100 µM (inactive)
GI50 (RXF 631): > 100 µM (inactive)
GI50 (SR): > 100 µM (inactive)
GI50 (MOLT-4): > 100 µM (inactive)
GI50 (HCT-15): > 100 µM
GI50 (HOP-62): > 100 µM (inactive)
GI50 (HCC 2998): > 100 µM (inactive)
GI50 (SK-MEL-2): > 100 µM (inactive)
GI50 (RXF 393): > 100 µM (inactive)
GI50 (CAKI-1): > 100 µM (inactive)
GI50 (SN12C): > 100 µM (inactive)
GI50 (DMS-114): > 100 µM (inactive)
GI50 (HCT-116): > 100 µM (inactive)
GI50 (U-251): > 100 µM (inactive)
GI50 (SW-620): > 100 µM (inactive)
GI50 (SNB-78): > 100 µM (inactive)
GI50 (UACC-257): > 100 µM (inactive)
GI50 (M14): > 100 µM (inactive)
GI50 (DLD-1): > 100 µM (inactive)
GI50 (OVCAR-3): > 100 µM (inactive)
GI50 (K562): > 100 µM (inactive)
GI50 (SF-268): > 100 µM (inactive)
GI50 (SNB-19): > 100 µM (inactive)
GI50 (Malme-3M): > 100 µM (inactive)
GI50 (OVCAR-4): > 100 µM (inactive)
GI50 (NCI-H522): > 100 µM (inactive)
GI50 (OVCAR-8): > 100 µM (inactive)
GI50 (ACHN): > 100 µM (inactive)
GI50 (KM-20L2): > 100 µM (inactive)
GI50 (TK-10): > 100 µM (inactive)
GI50 (786-0): > 100 µM (inactive)
GI50 (NCI-H226): > 100 µM (inactive)
GI50 (NCI-H460): > 100 µM (inactive)
GI50 (KM12): > 100 µM (inactive)
GI50 (HL-60): > 100 µM (inactive)
GI50 (UACC-62): > 100 µM (inactive)
